Read-outs that look alike come from different tables or passages of the source.
Tests used:
[1] = molecular target: T1, recombinant ROCK2 (amino acids 1-552) (Homo sapiens, UniProt O75116); test: Z'-lyte kinase assay, ROCK2; type: biochemical
T1 construct: ROCK2 (amino acids 1-552) proteins were purchased from ThermoFisher Scientific; purchased ThermoFisher Scientific
Method: (§1) Determination of compounds ROCK inhibitory activity in vitro (Z'lyte assay): recombinant ROCK1 (amino acids 1-535) and ROCK2 (amino acids 1-552) proteins were purchased from ThermoFisher Scientific. Compounds activities were measured by Z′-lyte kinase kit (ThermoFisher Scientific) and IC50s were calculated.
(§2) Table 2, below, provides in vitro and cellular inhibition of ROCKs by compounds of the invention. Compounds activities were measured by Z′-lyte kinase kit (ThermoFisher Scientific). […] IC50s were calculated using the GraphPad Prism software with kinase activities data that were collected from points 9 serial dilution of compounds treatment. The ROCK inhibition in A7R5 cells and NIH3T3 (Acta2-Luc) cells was performed as described above.

[2] = molecular target: T2, recombinant ROCK1 (amino acids 1-535) (Homo sapiens, UniProt Q13464); test: Z'-lyte kinase assay, ROCK1; type: biochemical; conditions: for inhibition at 3 µM: read-out: ROCK1 % inh
T2 construct: recombinant ROCK1 (amino acids 1-535) and ROCK2; purchased ThermoFisher Scientific
T2 sequence (Q13464 1-535): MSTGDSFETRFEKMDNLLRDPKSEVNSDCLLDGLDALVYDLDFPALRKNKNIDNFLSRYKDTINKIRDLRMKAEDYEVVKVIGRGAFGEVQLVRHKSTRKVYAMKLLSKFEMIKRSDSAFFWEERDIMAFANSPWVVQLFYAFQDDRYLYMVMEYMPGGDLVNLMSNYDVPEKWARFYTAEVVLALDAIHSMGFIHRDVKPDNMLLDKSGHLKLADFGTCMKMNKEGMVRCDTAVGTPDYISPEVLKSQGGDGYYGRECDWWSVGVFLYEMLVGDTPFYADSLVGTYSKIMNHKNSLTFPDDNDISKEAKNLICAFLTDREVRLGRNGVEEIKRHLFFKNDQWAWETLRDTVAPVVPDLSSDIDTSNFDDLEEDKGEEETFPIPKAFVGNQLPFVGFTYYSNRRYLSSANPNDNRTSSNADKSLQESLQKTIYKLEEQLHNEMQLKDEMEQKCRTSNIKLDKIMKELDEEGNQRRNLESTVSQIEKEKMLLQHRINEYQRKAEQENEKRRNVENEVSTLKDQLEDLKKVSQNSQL
Method: as §1, §2

[3] = test system: luciferase reporter driven by the human ACTA2 gene promoter in NIH3T3 cells; test: NIH3T3 cells Acta2-promoter driven-luciferase assay; type: cell-based; conditions: plus TGF 1, 24 hr, read-out: NIH3T3, Acta2-luc, IC50
Method: NIH3T3 cells Acta2-promoter driven-luciferase assay: A NIH3T3 cell line stably expressing a luciferase reporter driven by the human ACTA2 gene promoter (−1000-1 bp) was established (NIH3T3-Acta2-luciferase). The cells were plated to confluence and treated with the test compounds plus TGF 1 for 24 hr. Cells were then lysed and luciferase activity was measured using the LightSwitch luciferase kit from Active Motif.

[4] = test system: phospho-myosin light chains (ppMlc, Thr18/Ser19) in A7R5 cells; test: A7R5 in-cell ELISA, phospho-myosin light chain; type: cell-based, rat; conditions: for IC50 / inhibition at 10 µM: Rattus norvegicus, A7R5 cells; for inhibition at 10 µM: read-out: pMLC % inh A7R5
Method: Determination of compounds ROCK inhibitory activity in A7R5 cells: rat aortic smooth muscle cell line A7R5 cells were maintained and treated in DMEM medium with 10% of fetal bovine serum. Cells were seeded with density of 5,000 cells/well in 96-well plates for 24 hours and subsequently treated 90 min with testing compounds. Cells were then fixed and processed according to the In-Cell ELISA Colorimetric Detection Kit manual (Thermo Scientific). Cellular phospho-myosin light chains (ppMlc, Thr18/Ser19) levels were determined after treatments of DMSO control or test compounds using the In-Cell ELISA kit. The percent inhibition rate was calculated by applying the data obtained with 1 μM (or 10 μM) compound treatment to the formula, [1-(compound/DMSO)]×100%. ppMlc data obtained with 9 points 2-fold serial dilution of compounds were applied to the nonlinear regression curve fit function of the GraphPad Prism software to calculate the In cell IC50s.
A7R5 cells were treated with 9 points 2 fold serial dilution of compounds and ppMlc (T18/S19) levels were determined in order to calculate cellular IC50s of the compounds.
Two steps of measurements were adopted for pMLC/A7R5 IC50. Percent inhibition rates were calculated with a single dose (1 μM or 10 μM) compounds treatment to screen for active compounds and then cellular IC50s were measured only in compounds that have over 50% of inhibition rates.

[5] = 1.5 h, 90 min, read-out: pMLC IC50 A7R5

T1 sequence (O75116 1-552): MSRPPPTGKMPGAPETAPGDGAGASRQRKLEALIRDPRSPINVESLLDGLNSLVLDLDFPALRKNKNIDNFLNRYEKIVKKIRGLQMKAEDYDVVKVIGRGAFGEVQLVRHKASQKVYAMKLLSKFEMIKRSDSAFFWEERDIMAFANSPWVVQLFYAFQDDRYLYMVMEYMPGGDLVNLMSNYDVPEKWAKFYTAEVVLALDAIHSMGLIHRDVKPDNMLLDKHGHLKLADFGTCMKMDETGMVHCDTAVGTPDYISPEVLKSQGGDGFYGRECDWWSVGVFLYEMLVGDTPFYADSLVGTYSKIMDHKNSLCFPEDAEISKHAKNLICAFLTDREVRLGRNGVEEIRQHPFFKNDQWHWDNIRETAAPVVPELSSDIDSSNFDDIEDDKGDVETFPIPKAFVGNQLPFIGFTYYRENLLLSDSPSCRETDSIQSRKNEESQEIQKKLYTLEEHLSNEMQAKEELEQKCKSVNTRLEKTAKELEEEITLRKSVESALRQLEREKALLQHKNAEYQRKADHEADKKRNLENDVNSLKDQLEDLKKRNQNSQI

SMILES	inhibition at 0.5 µM ([1]; read-out: ROCK2 % inh)	IC50 [2]	IC50 [4, 5]	IC50 ([4]; ppMlc (T18/S19), 9 points 2 fold serial dilution, read-out: ppMIc IC50)	IC50 [1]	inhibition at 1 µM ([1]; @ 1 μM, read-out: ROCK2 % inh)	inhibition at 3 µM [2]	inhibition at 3 µM ([1]; read-out: ROCK2 % inh)	IC50 [3]	cellular ROCK inhibition compared with Comparative Example 2 ([4]; phosphorylation of the ROCK target pMLC in A7R5 cells)	inhibition at 10 µM [4]
CC(C)NC(C(=O)Nc1ccc2[nH]ncc2c1)c1ccc(F)cc1 (centres unmarked) [Example 20, 2-(4-fluorophenyl)-N-(1H-indazol-5-yl)-2-(isopropylamino)acetamide]		0.561 µM	2.51 µM		0.152 µM		18.4%	94.6%			
CCNC(C(=O)Nc1ccc2[nH]ncc2c1)c1ccccc1 (centres unmarked) [Example 21, 2-(ethylamino)-N-(1H-indazol-5-yl)-2-phenylacetamide]			2.39 µM				91.5%	95.8%			
CC(C)NC(C(=O)Nc1ccc2[nH]ncc2c1)c1ccccc1 (centres unmarked) [Example 22, N-(1H-indazol-5-yl)-2-(isopropylamino)-2-phenylacetamide]			1.8 µM				94.3%	96.7%			
COc1ccc(C(NC2CC2)C(=O)Nc2ccc3[nH]ncc3c2)cc1 (centres unmarked) [Example 27, 2-(cyclopropylamino)-N-(1H-indazol-5-yl)-2-(4-methoxyphenyl)acetamide]		0.079 µM	2.98 µM		0.066 µM						
Cc1ccc(C(NC2CC2)C(=O)Nc2ccc3[nH]ncc3c2)cc1 (centres unmarked) [Example 31, 2-(cyclopropylamino)-N-(1H-indazol-5-yl)-2-(p-tolyl)acetamide]		0.228 µM			> 1 µM						35%
CNC(C(=O)Nc1ccc2[nH]ncc2c1)c1ccc(-c2ccccc2OC)cc1 (centres unmarked) [Example 32, N-(1H-indazol-5-yl)-2-(2′-methoxy-[1,1′-biphenyl]-4-yl)-2-(methylamino)acetamide]		0.31 µM			> 1 µM						5%
CC(C)(C)NC(C(=O)Nc1ccc2[nH]ncc2c1)c1ccccc1 (centres unmarked) [Example 37, 2-(tert-butylamino)-N-(1H-indazol-5-yl)-2-phenylacetamide]		0.0981 µM	2.6 µM		0.0743 µM		99%	98.8%			
Cc1ccc(C(NC(C)(C)C)C(=O)Nc2ccc3[nH]ncc3c2)cc1 (centres unmarked) [Example 38, 2-(tert-butylamino)-N-(1H-indazol-5-yl)-2-(p-tolyl)acetamide]		0.0614 µM	1.34 µM		0.0274 µM		100%	100%			
CNC(C(=O)Nc1ccc2[nH]ncc2c1)c1cccnc1 (centres unmarked) [Example 39, N-(1H-indazol-5-yl)-2-(methylamino)-2-(pyridin-3-yl)acetamide]		0.25 µM	4.21 µM		0.213 µM						
CNC(C(=O)Nc1ccc2[nH]ncc2c1)c1ccccn1 (centres unmarked) [Example 40, N-(1H-indazol-5-yl)-2-(methylamino)-2-(pyridin-2-yl)acetamide]		0.143 µM			0.453 µM						37%
CCNC(C(=O)Nc1ccc2[nH]ncc2c1)c1cccc(F)c1 (centres unmarked) [Example 51, 2-(ethylamino)-2-(3-fluorophenyl)-N-(1H-indazol-5-yl)acetamide]			1.66 µM		0.053 µM				5.45 µM		

Continued, in another order:

inhibition at 0.5 µM ([1]; read-out: ROCK2 % inh)	IC50 [2]	IC50 [4, 5]	IC50 ([4]; ppMlc (T18/S19), 9 points 2 fold serial dilution, read-out: ppMIc IC50)	IC50 [1]	inhibition at 1 µM ([1]; @ 1 μM, read-out: ROCK2 % inh)	inhibition at 3 µM [2]	inhibition at 3 µM ([1]; read-out: ROCK2 % inh)	SMILES	IC50 [3]	cellular ROCK inhibition compared with Comparative Example 2 ([4]; phosphorylation of the ROCK target pMLC in A7R5 cells)	inhibition at 10 µM [4]
100%	0.0326 µM	0.207 µM	0.207 µM					CNC(C(=O)Nc1ccc2[nH]ncc2c1)c1ccc(Oc2ccc(OC)cc2)cc1 (centres unmarked) [Example 14, N-(1H-indazol-5-yl)-2-(4-(4-methoxyphenoxy)phenyl)-2-(methylamino)acetamide]	0.678 µM		
	0.0038 µM	0.252 µM		0.015 µM	99%	93.2%		CNC(C(=O)Nc1ccc2[nH]ncc2c1)c1ccc(Cl)cc1 (centres unmarked) [Example 16, 2-(4-chlorophenyl)-N-(1H-indazol-5-yl)-2-(methylamino)acetamide]	0.915 µM	enhanced	
	0.495 µM	1.06 µM		0.043 µM		94.3%	95.3%	CCNC(C(=O)Nc1ccc2[nH]ncc2c1)c1ccc(F)cc1 (centres unmarked) [Example 23, 2-(ethylamino)-2-(4-fluorophenyl)-N-(1H-indazol-5-yl)acetamide]			
	0.00389 µM	0.224 µM		0.0036 µM		99%	98.8%	CNC(C(=O)Nc1ccc2[nH]ncc2c1)c1ccc(OC)cc1 (centres unmarked) [Example 24, N-(1H-indazol-5-yl)-2-(4-methoxyphenyl)-2-(methylamino)acetamide]	0.321 µM		
	0.0106 µM	0.633 µM		0.0097 µM		99%	98.8%	COc1ccc(C(NC(C)C)C(=O)Nc2ccc3[nH]ncc3c2)cc1 (centres unmarked) [Example 25, N-(1H-indazol-5-yl)-2-(isopropylamino)-2-(4-methoxyphenyl)acetamide]			
	0.0178 µM	0.834 µM		0.0212 µM		99%	98.8%	CNC(C(=O)Nc1ccc2[nH]ncc2c1)c1ccc(C)cc1 (centres unmarked) [Example 28, N-(1H-indazol-5-yl)-2-(methylamino)-2-(p-tolyl)acetamide]			
	0.0657 µM	0.934 µM		0.0063 µM		99%	98.8%	Cc1ccc(C(NC(C)C)C(=O)Nc2ccc3[nH]ncc3c2)cc1 (centres unmarked) [Example 29, N-(1H-indazol-5-yl)-2-(isopropylamino)-2-(p-tolyl)acetamide]			
	0.0247 µM	0.766 µM		0.0099 µM		99%	98.8%	COc1ccc(C(NC(C)(C)C)C(=O)Nc2ccc3[nH]ncc3c2)cc1 (centres unmarked) [Example 36, 2-(tert-butylamino)-N-(1H-indazol-5-yl)-2-(4-methoxyphenyl)acetamide]			
		0.532 µM		0.034 µM				CNC(C(=O)Nc1ccc2[nH]ncc2c1)c1cccc(C)c1 (centres unmarked) [Example 52, N-(1H-indazol-5-yl)-2-(methylamino)-2-(m-tolyl)acetamide]	1.51 µM		
		0.914 µM		0.041 µM				CNC(C(=O)Nc1ccc2[nH]ncc2c1)c1cccc(F)c1 (centres unmarked) [Example 53, 2-(3-fluorophenyl)-N-(1H-indazol-5-yl)-2-(methylamino)acetamide]	1.16 µM		
		0.2 µM		0.014 µM				CN[C@@H](C(=O)Nc1ccc2[nH]ncc2c1)c1cccc(OC)c1 [Example 54, (R)-N-(1H-indazol-5-yl)-2-(3-methoxyphenyl)-2-(methylamino)acetamide]	0.268 µM		
		0.589 µM		0.03 µM				CN[C@H](C(=O)Nc1ccc2[nH]ncc2c1)c1cccc(OC)c1 [Example 55, (S)-N-(1H-indazol-5-yl)-2-(3-methoxyphenyl)-2-(methylamino)acetamide]	0.773 µM		
		0.546 µM		0.046 µM				CNC(C(=O)Nc1ccc2[nH]ncc2c1)c1ccc(OC(F)(F)F)cc1 (centres unmarked) [Example 56, N-(1H-indazol-5-yl)-2-(methylamino)-2-(4-(trifluoromethoxy)phenyl)acetamide]	0.666 µM		
95%		0.339 µM		0.025 µM				CNC(C(=O)Nc1ccc2[nH]ncc2c1)c1ccc(OC)c(F)c1 (centres unmarked) [Example 57, 2-(3-fluoro-4-methoxyphenyl)-N-(1H-indazol-5-yl)-2-(methylamino)acetamide]	0.473 µM		
